Source: patent US8404672B2, “Substituted heterocyclic compounds” (Bristol-Meyers Squibb Company, priority 2009, dated 2013)

Assays:
[1] = molecular target: T1, S1P1 (membranes from S1P1 transfected CHO cells) (Homo sapiens, UniProt P21453); assay: Method B: Receptor [35S] GTPγS SPA Binding Assay, S1P1; type: biochemical
T1 construct: expressed in transfected cells; host or cells: CHO cells
Description: Method B: Receptor [35S] GTPγS SPA Binding Assays
Membranes prepared from S1P1 or S1P3 transfected CHO cells ([…]) were incubated in 96-well white plates (CORNING® 3693) with test compounds diluted in DMSO, in 50 μl of reaction mixture containing 7.5 μl WGA-PVT beads (20 mg/ml), and 5 μM GDP, 20 mM HEPES pH 7.4, 100 mM NaCl, 1 mM EDTA, 5 mM MgCl2, 10 μg/ml saponin, 0.1% BSA, and 1 μM leupeptin. The assay was initiated with the addition of […] of 0.2 nM [^35S]-GTPγS (1250 Ci/mmol; NEN) in assay buffer. After 90 min incubation at room temperature, spin the plate at 1000 rpm for 5 min. The bound radionuclides were measured at TOPCOUNT®, expressed as % response relative to S1P (1 μM) activation. Data was analyzed using the four parameter logistic equation in Excel. The four parameters in the equation, Y=A+((B−A)/(1+((EC50/X)^D))), are described as following: A is the Y value (agonist activity) at the bottom plateau; B is the Y value at the top plateau; EC50 is the X value (agonist concentration) when the response is halfway between bottom and top; D is Hill coefficient. Curves were not generated for compounds having Ymax values were below 50%.
Compounds of the present invention and Comparative Compound A were tested in the Receptor [35S] GTPγS Binding Assays (Method A) and Receptor [35S] In some instances, the value is an average of multiple experiments where N is the number of experiments conducted that provided satisfactory dose response curves. When more than one batch of an example was tested, the value presented is from a batch which allowed a comparison of GTPγS S1P1 and GTPγS S1P3 in which the most number of experiments were performed. Preferably, the same batch was examined in Method A and Method B. Data was not averaged across different batches of an example compound.

[2] = tested on: rat adjuvant-induced arthritis model (hind paw volume); assay: Rat Adjuvant Induced Arthritis Assay (AA); type: in vivo, Male Lewis rats; conditions: for Paw Swelling on Day 20 (Mean): vehicle mean 1.11
Description: Rat Adjuvant Induced Arthritis Assay (AA)
Male Lewis rats (150-175 g; Harlan, n=8 treatment group) were immunized at the base of the tail with 100 μl of 10 mg/ml freshly ground Mycobacterium butyricum (Difco Laboratories) in incomplete Freund's adjuvant (sigma). Animals were dosed once daily with the test article (as a solution or suspension in the vehicle) or vehicle alone (polyethylene glycol 300, “PEG300”) starting from the day of immunization. The volumes of their hind paws were measured in a water displacement plethysmometer (Ugo Basile, Italy). The baseline paw measurements were taken before onset of the disease (between day 7 to day 10). The paw measurements were then taken three times a week until the end of the study on day 20. All procedures involving animals were reviewed and approved by the Institutional Animal Care Use Committee.
A compound of the present invention was tested in the Rat Adjuvant Induced Arthritis assay described hereinabove and the results are shown in Table F.

T1 sequence (P21453 whole entry): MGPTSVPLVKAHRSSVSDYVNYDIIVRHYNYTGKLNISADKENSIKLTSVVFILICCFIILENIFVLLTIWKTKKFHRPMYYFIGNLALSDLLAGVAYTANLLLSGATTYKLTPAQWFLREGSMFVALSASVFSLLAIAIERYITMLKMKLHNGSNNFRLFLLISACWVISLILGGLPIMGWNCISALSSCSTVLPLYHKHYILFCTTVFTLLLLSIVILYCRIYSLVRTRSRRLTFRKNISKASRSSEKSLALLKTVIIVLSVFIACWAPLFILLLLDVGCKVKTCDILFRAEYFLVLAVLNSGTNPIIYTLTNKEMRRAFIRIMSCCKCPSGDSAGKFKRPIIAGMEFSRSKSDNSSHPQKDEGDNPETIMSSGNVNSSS

## O=C(O)C1CN(Cc2ccc(-c3noc(-c4onc(-c5ccccn5)c4C(F)(F)F)n3)cc2)C1 [Example 1, 1-(4-(5-(3-(Pyridin-2-yl)-4-(trifluoromethyl)isoxazol-5-yl)-1,2,4-oxadiazol-3-yl)benzyl)azetidine-3-carboxylic acid]
[1]; Method B SPA, S1P1 transfected CHO membranes
  EC50: 0.17 nM
[1]; ratio of GTPγS S1P3 EC50 to GTPγS S1P1 EC50, Method B
  GTPγS S1P3/S1P1 (Method B): 37,000
[2]; 0.03 mg/kg once daily from day of immunization
  Paw Swelling on Day 20 (Mean): 1.48 mL
[2]; 0.1 mg/kg once daily from day of immunization
  Paw Swelling on Day 20 (Mean): 1.41 mL
[2]; 0.5 mg/kg once daily from day of immunization
  Paw Swelling on Day 20 (Mean): 0.72 mL
[2]; 3.0 mg/kg once daily from day of immunization
  Paw Swelling on Day 20 (Mean): 0.07 mL
[2]; Lewis rat, prophylactic oral dosing
  disease progression as measured by paw swelling (in words): inhibits disease progression
